Measurements as given in US20260217699A1, “BERBERINE TAUROURSODEOXYCHOLATE COMPOSITIONS AND METHODS THEREOF” (SHENZHEN HIGHTIDE BIOPHARMACEUTICAL LTD., priority 2023, published 2026).

Experiments:
Format in all cases: in vivo, Sprague-Dawley rats
IL-6 = experiment: Elisa test of cerebrospinal fluid, IL-6; conditions: rat cerebrospinal fluid; BTUDC-H 1000 mg/kg p.o. Qd 21 days; Mean ± SEM, n=10; Model 159.058 ± 6.349; p<0.05 vs Model
Excerpt: (§1) The cerebrospinal fluid was directly extracted by inserting a needle through the foramen magnum, and the supernatant was collected after centrifugation for ELISA testing. The kit brand was Shanghai Enzyme Link. The product codes of IL-6, IL-1β, and TNF-α were m1064292, m1037361, and m1002859, respectively. Processed the sample according to the instructions of the ELISA detection kit, adjusted the blank well to zero, measured the absorbance (OD value) of each well sequentially at a wavelength of 450 nm, and calculated the sample concentration based on the standard curve and OD value. […]
(§2) Dosing volume: 10 mL/kg • 1. […] Histochemical test: After the behavioral test, the cerebrospinal fluid from each animal (N=10) was collected, centrifuged to collect the supernatant, and stored at −80° C. for Elisa test (IL-6, IL-1β, TNF-α), then the animals in each group (N=5) were randomly selected to take the modeling side of the striatum for the detection of neurotransmitters, and the rest of them (N=5) were subjected to cardiac perfusion, which was performed by the process of perfusion, fixation, sedimentation and slicing for immunofluorescence staining and photographed, and the number or area of signals were counted by ImageJ software. • 4. […]

IL-1β = experiment: Elisa test of cerebrospinal fluid, IL-1β; conditions: rat cerebrospinal fluid; BTUDC-H 1000 mg/kg p.o. Qd 21 days; Mean ± SEM, n=10; Model 41.509 ± 1.298; p<0.05 vs Model
Excerpt: as §1, §2

[1] = tested on: 6-OHDA Stereotactic Injection Induced PD Rats; experiment: Apomorphine-asymmetric rotation test
Excerpt: (§3) The rats were respiratory anesthetized with isoflurane; the head was fixed to ensure that there was no movement and the brain surface was adjusted to be flat; the head was shaved, and a skin incision was made along the sagittal suture to expose the fontanel point; the glass electrode was positioned to the fontanel, and the axes of the coordinate monitor were zeroed to locate the brain areas of the SN and the Str based on the coordinates, in which the SN: AP=−5.0 mm; ML=−1.9 mm; DV=−8.5 mm, and Str: AP=+0.5 mm; ML=−3.0 mm; DV=−6.0 mm. […]; slowly inserted the needle into the localized area of SN and Str, waited for 10 min, and then administered the drug of 6-OHDA at a rate of […] for 10 min, and each animal was given […] of each of SN and Str area, and then the needle was slowly withdrawn after the drug was administered for 10 min, and the PD rat model was established.
The animals were tested three weeks post-administration. 0.5 mg/kg of apomorphine was injected intraperitoneally. The number of rotations of each rat in 30 min were recorded, and the rat appeared to rotate in place toward the opposite side of the injury using the rotating forelimb as a support point. […]
Experimental Methods: Seventy 180-220g SD male rats were selected and fed for one week for accumulation, and the PD model was established by stereotactic unilateral injection of 6-OHDA in the Substantia Nigra (SN) and Striatum (Str) regions and were randomly divided into five groups according to their body weights including Madopar group (Madopar, 50 mg/kg), BTUDC-L group (BTUDC, 100 mg/kg), BTUDC-M group (BTUDC, 500 mg/kg), and BTUDC-H group (BTUDC, 1000 mg/kg), with 10 animals in each group. […] At the end of the administration, the test articles were evaluated for tolerance in this model and in behavioral apomorphine—asymmetric rotation test, beam test, rotarod test and grip strength test, immunofluorescence staining (TH, Ibal), and cerebrospinal fluid inflammatory factor assays to evaluate the pharmacodynamic effects of the test articles. […]

[2] = tested on: 6-OHDA Stereotactic Injection Induced PD Rats; experiment: Balance beam test; conditions: for Foot Slips Times / Passage Time: Mean ± SEM, N=10; for Foot Slips Times: Model 1.7 ± 0.2; for Passage Time: Model 10.9 ± 1.3
Excerpt: as §3
The rat was placed on a balance beam. The time was recorded it took for the rat to pass the balance beam as well as the number of foot slips (feet leave the top of the balance beam). The average of the two successful passing times and the number of foot slips were used as the evaluation criteria for the rat's locomotor balance ability. Information regarding beam test can also be found in the literature (Allbutt, et al. 2007 J Neurosci Methods 159(2):195-202; Fine, et al. 2014 Brain Res. 1574:96-104).
In this study, 16 Sprague Dawley (SD) male rats 180g-220g were used to establish a PD model by stereotactic unilateral injection of 6-OHDA in the substantia nigra (SN) and striatum (Str) brain areas after one week of acclimatization feeding and were randomly divided into 2 groups of 8 rats each. One group was dosed with the test compound BTUDC 500 mg/kg (QD, p.o.) and the other group was the Model group, which was given an equal volume of 0.5% CMC-Na (QD, p.o.) as the test compound group. The animals were administered once a day for 21 consecutive days starting from the second day after modeling to evaluate the tolerability and therapeutic potential of BTUDC in the 6-OHDA PD model.
Experimental Methods: Seventy 180-220g SD male rats were selected and fed for one week for accumulation, and the PD model was established by stereotactic unilateral injection of 6-OHDA in the Substantia Nigra (SN) and Striatum (Str) regions and were randomly divided into five groups according to their body weights including Madopar group (Madopar, 50 mg/kg), BTUDC-L group (BTUDC, 100 mg/kg), BTUDC-M group (BTUDC, 500 mg/kg), and BTUDC-H group (BTUDC, 1000 mg/kg), with 10 animals in each group. Another 10 SD male rats were taken for sham operation (only 4 μL of 0.9% NS containing 0.02% ascorbic acid was given to the SN and Str brain regions during modeling) as the Sham group. The drug was administered by gavage once daily continuously for 21 days starting on the second day of modeling (first day of dosing, D1). General observation was made during the dosing period. At the end of the administration, the test articles were evaluated for tolerance in this model and in behavioral apomorphine—asymmetric rotation test, beam test, rotarod test and grip strength test, immunofluorescence staining (TH, Ibal), and cerebrospinal fluid inflammatory factor assays to evaluate the pharmacodynamic effects of the test articles. Inflammatory factors tested included interleukin 6 (1L-6), inflammatory factor […], Tumor Necrosis Factor alpha (TNF-α), inflammatory assays were done in a total of 4 groups included Sham, Model, Madopar and BTUDC-H groups.

TNF-α = experiment: Elisa test of cerebrospinal fluid, TNF-α; conditions: rat cerebrospinal fluid; BTUDC-H 1000 mg/kg p.o. Qd 21 days; Mean ± SEM, n=10; Model 271.022 ± 8.145; p<0.05 vs Model
Excerpt: as §1, §2

[3] = BTUDC-H 1000 mg/kg p.o. Qd 21 days, p<0.001 vs Model

Compound: COc1ccc2cc3[n+](cc2c1OC)CCc1cc2c(cc1-3)OCO2.C[C@H](CCC(=O)NCCS(=O)(=O)[O-])[C@H]1CC[C@H]2[C@@H]3[C@@H](O)C[C@@H]4C[C@H](O)CC[C@]4(C)[C@H]3CC[C@]12C [BTUDC, Berberine tauroursodeoxycholate]
- IL-6 Conc. (IL-6): 147.095 ± 1.871 pg/mL
- IL-1β Conc. (IL-1β): 37.251 ± 1.005 pg/mL
- difference in number of ipsilateral rotations within 30 minutes vs Model group ([1]; 500 mg/kg QD p.o. 21 days, p>0.05): no statistically significant difference
- number of rotational circles within 30 min of apomorphine injection vs Model group ([1]; BTUDC-H 1000 mg/kg p.o. Qd 21 days): significantly lower
- Number of Ipsilateral Rotation ([1]; within 30 minutes of apomorphine injection, 500 mg/kg/day p.o. 21 days, 8 rats, Model 126.380 ± 31.681): 109.000 ± 23.670
- Beam Test Number of feet slips ([2]; 500 mg/kg QD p.o. 21 days, Model 1.313 ± 0.3772, P < 0.001 vs Model): 0.250 ± 0.0945
- Beam Test Passing time ([2]; 500 mg/kg QD p.o. 21 days, Model 9.938 ± 1.8088, P < 0.001 vs Model): 3.563 ± 0.6228 s
- Foot Slips Times [2, 3]: 0.6 ± 0.2
- Passage Time [2, 3]: 4.8 ± 0.4 s
- Foot Slips Times ([2]; BTUDC-L 100 mg/kg p.o. Qd 21 days, p<0.05 vs Model): 1.0 ± 0.3
- Passage Time ([2]; BTUDC-L 100 mg/kg p.o. Qd 21 days, p<0.01 vs Model): 8.0 ± 0.7 s
- Foot Slips Times ([2]; BTUDC-M 500 mg/kg p.o. Qd 21 days, p<0.01 vs Model): 0.8 ± 0.2
- Passage Time ([2]; BTUDC-M 500 mg/kg p.o. Qd 21 days, p<0.001 vs Model): 6.4 ± 0.7 s
- TNF-α Conc. (TNF-α): 250.424 ± 9.186 pg/mL
